Results on eleven compounds are retold here after ChEMBL document CHEMBL1154913, “Sesquiterpene lactones from Anthemis melanolepis and their antibacterial and cytotoxic activities. Prediction of their pharmacokinetic profile” (2010).

The test system of test [1] is SF-268. Put plainly: Cytotoxicity against human SF268 at 100 uM cells after 48 hrs by SRB assay. Type of test: functional, cell-based. In general terms: In SRB staining, fixed cells bind dye roughly in proportion to their protein.
Test [2] concerns NCI-H460. Put plainly: Cytotoxicity against human H460 cells at 100 uM after 48 hrs by SRB assay. The test is classed as functional, cell-based.
For test [3], the system named is MCF7. Put plainly: Cytotoxicity against human MCF7 cells at 100 uM after 48 hrs by SRB assay. The test is classed as functional, cell-based.
Test [4] concerns SF-268. Put plainly: Cytotoxicity against human SF268 cells after 48 hrs by SRB assay. Type of test: functional. The conditions noted are these: SF-268, 48 h.
Another test concerns Pseudomonas aeruginosa. Put plainly: Antibacterial activity against Pseudomonas aeruginosa clinical isolate after 48 hrs by serial dilution technique. The test is classed as functional.
For test [5], the system named is Agrobacterium tumefaciens. Put plainly: Antibacterial activity against Agrobacterium tumefaciens A 281 after 48 hrs by serial dilution technique. The test is classed as functional. The conditions noted are these: A 281, 48 h.
The test system of test [6] is Micrococcus luteus. Put plainly: Antibacterial activity against Micrococcus luteus clinical isolate after 48 hrs by serial dilution technique. Type of test: functional.
The test system of another test is Salmonella enterica. Put plainly: Antibacterial activity against Salmonella enteritidis ATCC 13076 after 48 hrs by serial dilution technique. The test is classed as functional, Salmonella enterica subsp. enterica serovar Enteritidis. The conditions noted are these: ATCC 13076, 48 h.
The test system of the next test is Escherichia coli. Put plainly: Antibacterial activity against Escherichia coli ATCC 35218 after 48 hrs by serial dilution technique. Type of test: functional. Particulars: ATCC 35218, 48 h.
A further test deals with Candida albicans. Put plainly: Antifungal activity against Candida albicans clinical isolate after 48 hrs by serial dilution technique. Type of test: functional.
In the next test the test system is Staphylococcus aureus. Put plainly: Antibacterial activity against Staphylococcus aureus ATCC 6538 after 48 hrs by serial dilution technique. The test is classed as functional. The conditions noted are these: ATCC 6538, 48 h.
The next test has as its system Proteus mirabilis. Put plainly: Antibacterial activity against Proteus mirabilis clinical isolate after 48 hrs by serial dilution technique. Type of test: functional, organism-based.
Another test has as its system Bacillus cereus. Put plainly: Antibacterial activity against Bacillus cereus clinical isolate after 48 hrs by serial dilution technique. Type of test: functional.
The subject of test [7] is Micrococcus luteus. Put plainly: Antibacterial activity against Sarcina lutea ATCC 9341 after 48 hrs by serial dilution technique. The test is classed as functional. The conditions noted are these: ATCC 9341, 48 h.
The next test has as its system Pseudomonas tolaasii. Put plainly: Antibacterial activity against Pseudomonas tolaasii after 48 hrs by serial dilution technique. Type of test: functional.
The subject of test [8] is MCF7. Put plainly: Cytotoxicity against human MCF7 cells after 48 hrs by SRB assay. Particulars: MCF7, 48 h. Type of test: functional.
In test [9] the test system is NCI-H460. Put plainly: Cytotoxicity against human H460 cells after 48 hrs by SRB assay. Type of test: functional. The conditions noted are these: NCI-H460, 48 h.

Converted amounts (≈) assume the structure as drawn. The source made the active and inactive calls. The calls are words filed in the database; no cut-off is given here. Where only a bound is given, the exact number is not on record here.

The LC50 is the concentration that kills 50% of the test population. In general, GI50 refers to the concentration giving 50% growth inhibition. Usually TGI stands for the concentration giving total growth inhibition. With `C=C1C(=O)O[C@H]2C[C@]3(C)[C@H](O)CCC(=C)[C@@H]3[C@@H](O)[C@H]12` [ANTHEMIN B], the LC50 entry in the test with SF-268 [1] is “inactive”. Besides, in the test on NCI-H460 [2], the GI50 result was “inactive”, the LC50 entry was “inactive” and the TGI result was “inactive”. For the same compound, in the test on MCF7 [3], the GI50 entry is “inactive”, the LC50 entry is “inactive” and the TGI entry is “inactive”. Also, in the test on SF-268 [4], the 50% growth inhibitory concentration (GI50) amounted to 52.3 µM and net growth stopped (TGI) at 80.3 µM.

By MIC is commonly meant the lowest concentration that inhibits growth of the organism. As for `C=C1C(=O)O[C@H]2/C=C(\C)[C@@H](O)CC/C(C)=C/[C@@H](O)[C@H]12` [TATRIDIN A], the minimum inhibitory concentration (MIC) stood at 25 µg/mL (≈ 94.6 µM) in the test on Pseudomonas aeruginosa; 25 µg/mL (≈ 94.6 µM) in test [5]; 6.25 µg/mL (≈ 23.6 µM) in the test with Micrococcus luteus [6]; 25 µg/mL (≈ 94.6 µM) with Salmonella enterica; 25 µg/mL (≈ 94.6 µM) against Escherichia coli; 25 µg/mL (≈ 94.6 µM) with Candida albicans. Further, the minimal inhibitory concentration (MIC) against Staphylococcus aureus is 0.625 µg/mL (≈ 2.36 µM); with Bacillus cereus, 6.25 µg/mL (≈ 23.6 µM); against Micrococcus luteus [7], 6.25 µg/mL (≈ 23.6 µM); in the test with Pseudomonas tolaasii it was 25 µg/mL (≈ 94.6 µM). Besides, the MIC entry with Proteus mirabilis was “inactive”.

As to `c1ccc(-c2ccc(C(c3ccccc3)n3ccnc3)cc2)cc1` (centres undefined) [BIFONAZOLE], the MIC against Candida albicans turned out to be 200 µg/mL (≈ 644 µM). Moreover, the MIC result in the test with Proteus mirabilis is “inactive”.

`C=C1C(=O)O[C@H]2C[C@@]3(C)[C@H](O)CC[C@@](C)(O)[C@@H]3[C@@H](O)[C@H]12`: the minimal inhibitory concentration (MIC) with Pseudomonas aeruginosa came out at 50 µg/mL (≈ 177 µM); in test [5], 25 µg/mL (≈ 88.5 µM); in the test on Micrococcus luteus [6] it was 12.5 µg/mL (≈ 44.3 µM); in the test on Salmonella enterica it was 25 µg/mL (≈ 88.5 µM); with Escherichia coli, 25 µg/mL (≈ 88.5 µM); in the test with Staphylococcus aureus, 1.25 µg/mL (≈ 4.43 µM). Moreover, the minimum inhibitory concentration (MIC) was 12.5 µg/mL (≈ 44.3 µM) against Bacillus cereus, 6.25 µg/mL (≈ 22.1 µM) against Micrococcus luteus [7] and 25 µg/mL (≈ 88.5 µM) against Pseudomonas tolaasii. Also, the LC50 entry in the test with SF-268 [1], with NCI-H460 [2] and with MCF7 [3] was “inactive” throughout. For the same compound, the TGI result with SF-268 [1], in the test with NCI-H460 [2] and with MCF7 [3] was “inactive” throughout. The GI50 entry with NCI-H460 [2] and with MCF7 [3] was “inactive” in each case. For the same compound, in the test on Proteus mirabilis, the MIC result was “inactive”. The same compound displayed a GI50 with SF-268 [4] of 40.3 µM.

For `CC[C@]1(O)C[C@@H]2CN(CCc3c([nH]c4ccccc34)[C@@](C(=O)OC)(c3cc4c(cc3OC)N(C)[C@H]3[C@@](O)(C(=O)OC)[C@H](OC(C)=O)[C@]5(CC)C=CCN6CC[C@]43[C@@H]65)C2)C1` [VINBLASTINE], the concentration for 50% growth inhibition (GI50) in the test with MCF7 [8], in the test with NCI-H460 [9] and in the test with SF-268 [4] was less than 0.01 µM throughout. The concentration for total growth inhibition (TGI) in the test with MCF7 [8] was determined as 1.6 µM; with NCI-H460 [9] it was 0.35 µM; in the test on SF-268 [4], 1.64 µM. Besides, the CC50 with SF-268 [4] (read-out: LC50 (the source's name)) was 2.48 µM.

Turning to `C=C1C(=O)O[C@H]2C[C@@]3(C)[C@H](C(=C)CC[C@@H]3O)[C@@H](O)[C@H]12` [ELEGALACTONE A], the MIC with Micrococcus luteus [6] and with Staphylococcus aureus was 50 µg/mL (≈ 189 µM) in each case. The LC50 entry in the test on SF-268 [1], in the test with NCI-H460 [2] and in the test with MCF7 [3] was “inactive” in each case. The TGI entry in the test on SF-268 [1], in the test with NCI-H460 [2] and with MCF7 [3] was “inactive” in each case. Besides, the GI50 result with NCI-H460 [2] and in the test on MCF7 [3] was “inactive” throughout. The MIC result with Proteus mirabilis is “inactive”. For the same compound, the 50% growth inhibitory concentration (GI50) in the test on SF-268 [4] is 76 µM.

For `C=C1C(=O)O[C@H]2/C=C(\C)[C@@H](O)CC[C@@]3(C)O[C@@H]3[C@H](O)[C@H]12`, the MIC in the test with Pseudomonas aeruginosa is 50 µg/mL (≈ 178 µM); in test [5], 25 µg/mL (≈ 89.2 µM); against Micrococcus luteus [6] it was 12.5 µg/mL (≈ 44.6 µM); against Salmonella enterica, 25 µg/mL (≈ 89.2 µM); against Escherichia coli, 25 µg/mL (≈ 89.2 µM); in the test on Staphylococcus aureus it was 1.25 µg/mL (≈ 4.46 µM). Besides, the MIC against Bacillus cereus was determined as 12.5 µg/mL (≈ 44.6 µM); in the test on Micrococcus luteus [7], 6.25 µg/mL (≈ 22.3 µM); in the test on Pseudomonas tolaasii, 25 µg/mL (≈ 89.2 µM). In the test on Proteus mirabilis, the MIC entry is “inactive”.

Take `CN[C@@H]1[C@H](O[C@H]2[C@H](O[C@H]3[C@H](O)[C@@H](O)[C@H](N=C(N)N)[C@@H](O)[C@@H]3N=C(N)N)O[C@@H](C)[C@]2(O)C=O)O[C@@H](CO)[C@H](O)[C@H]1O` [STREPTOMYCIN]: the minimal inhibitory concentration (MIC) came to 100 µg/mL (≈ 172 µM) in test [5]; 50 µg/mL (≈ 86 µM) against Micrococcus luteus [6]; 200 µg/mL (≈ 344 µM) with Salmonella enterica; 100 µg/mL (≈ 172 µM) with Escherichia coli; 50 µg/mL (≈ 86 µM) against Bacillus cereus; 50 µg/mL (≈ 86 µM) with Micrococcus luteus [7]. In addition, the MIC in the test with Pseudomonas tolaasii was determined as 200 µg/mL (≈ 344 µM). The MIC result with Proteus mirabilis was “inactive”.

For `C=C1C[C@@H]2OC(=O)C(=C)[C@H]2[C@@H](O)/C=C(\C)CCC1=O` [ANTHEMIN C], the minimal inhibitory concentration (MIC) was determined as 12.5 µg/mL (≈ 47.7 µM) with Micrococcus luteus [6], 1.25 µg/mL (≈ 4.77 µM) with Staphylococcus aureus, 12.5 µg/mL (≈ 47.7 µM) with Bacillus cereus and 25 µg/mL (≈ 95.3 µM) against Micrococcus luteus [7]. The MIC result with Proteus mirabilis was “inactive”.

In the case of `C=C1C(=O)O[C@H]2CC(=C)[C@@H](O)CC/C(C)=C/[C@@H](O)[C@H]12` [TATRIDIN B], the minimum inhibitory concentration (MIC) against Pseudomonas aeruginosa turned out to be 25 µg/mL (≈ 94.6 µM); in test [5] it was 25 µg/mL (≈ 94.6 µM); in the test with Micrococcus luteus [6], 6.25 µg/mL (≈ 23.6 µM); with Salmonella enterica it was 25 µg/mL (≈ 94.6 µM); in the test with Escherichia coli, 25 µg/mL (≈ 94.6 µM); in the test on Candida albicans it was 25 µg/mL (≈ 94.6 µM). The minimum inhibitory concentration (MIC) worked out at 0.625 µg/mL (≈ 2.36 µM) in the test with Staphylococcus aureus, 6.25 µg/mL (≈ 23.6 µM) against Bacillus cereus, 6.25 µg/mL (≈ 23.6 µM) in the test with Micrococcus luteus [7] and 25 µg/mL (≈ 94.6 µM) in the test on Pseudomonas tolaasii. Besides, the MIC entry with Proteus mirabilis is “inactive”.

As to `C=C1C(=O)O[C@H]2C[C@@]3(C)[C@H](O)CCC(=C)[C@@H]3[C@@H](O)[C@H]12`, the minimum inhibitory concentration (MIC) in the test on Pseudomonas aeruginosa is 25 µg/mL (≈ 94.6 µM); in [5], 25 µg/mL (≈ 94.6 µM); against Micrococcus luteus [6], 6.25 µg/mL (≈ 23.6 µM); in the test on Salmonella enterica it was 25 µg/mL (≈ 94.6 µM); against Escherichia coli it was 25 µg/mL (≈ 94.6 µM); in the test with Candida albicans, 25 µg/mL (≈ 94.6 µM). The minimum inhibitory concentration (MIC) against Staphylococcus aureus worked out at 0.625 µg/mL (≈ 2.36 µM); in the test with Bacillus cereus it was 6.25 µg/mL (≈ 23.6 µM); with Micrococcus luteus [7], 6.25 µg/mL (≈ 23.6 µM); in the test with Pseudomonas tolaasii, 25 µg/mL (≈ 94.6 µM). The figures for the GI50 with MCF7 [8], in the test on NCI-H460 [9] and with SF-268 [4] were 52.3 µM, 69 µM and 42.7 µM, respectively. The compound also showed an LC50 with MCF7 [8] of 85.8 µM. Moreover, total growth inhibition in the test on MCF7 [8] (TGI) required 64.2 µM. In addition, the LC50 entry in the test with SF-268 [1] and in the test on NCI-H460 [2] was “inactive” throughout. In addition, the TGI result in the test on SF-268 [1] and with NCI-H460 [2] was “inactive” throughout. The MIC entry in the test with Proteus mirabilis is “inactive”.
